Test results: US7435551B2, “Method for diagnosing type II diabetes or monitoring therapeutic effects of therapeutic agents for type II diabetes” (Fujirebio, Inc., priority 2001, dated 2008)

Legend:
Type in all cases: in vivo, human
[1] = Three-month pioglitazone administration to type II diabetes patients: body mass index and blood pressure; conditions: type II diabetes patients n=10, 30 mg/day orally, mean ± S.D.
From the text: (§1) 10 male patients with type II diabetes (ages: 40 to 66, 57.7±7.4) either being only under diet therapy (n=7) or being under diet therapy and on medication of sulfonylurea (n=3) were subjected to inspection regarding the following parameters before and after a three-month administration of a thiazolidine derivative, pioglitazone. Body weights, blood glucose levels, and blood pressure levels of those patients and treatments for them were at constant levels for at least 3 months before the examination. The sulfonylurea doses for 3 patients were at constant levels during that period. Pioglitazone was administered to all 10 patients after breakfast every day (orally, 30 mg/day).
(§2) The systolic blood pressure (SBP) and the diastolic blood pressure (DBP) were measured twice in a sitting position after an at least 5-minute recess. Body heights, weights, and levels of fasting plasma glucose (FPG), HbA1C, serum insulin, adiponectin, total cholesterol (TC), triglyceride (TG), HDL-cholesterol, LDL-cholesterol, and uric acid were measured in the morning after an overnight fast. Levels of plasma glucose, lipids, and uric acid were measured by a common automated measuring technique. The serum concentration of insulin was measured using a commercially available kit, EIA (Tosoh, Tokyo), as already described (Kawai, T. et al., Metabolism 48: 1102-1107, 1999; Hirose, H. et al., Clin. Sci. (Colch) 94: 633-636, 1998; Hirose, H. et al., J. Hypertens. 16: 2007-2012, 1998; Hirose, H. et al., Clin. Sci. (Colch) 100: 145-150, 2001). The insulin resistance index was evaluated by the Homeostasis model assessment (HOMA-IR) (Matthews, D. R. et al., Diabetologia 28: 412-419, 1985; Rudenski, A. S. et al., Metabolism 40: 908-917, 1991).

[2] = Three-month pioglitazone administration to type II diabetes patients: fasting glucose, HbA1c, lipids, uric acid
From the text: as §1, §2

[3] = Three-month pioglitazone administration to type II diabetes patients: serum insulin (EIA) and HOMA-IR
From the text: as §1, §2

[4] = Assessment of body fat distribution by CT scan before and after three-month pioglitazone; conditions: type II diabetes patients n=10, 30 mg/day orally, mean ± S.D.
Procedure: The patients who had been also employed in Example 1 were subjected to the assessment of body fat distribution before and after the three-month administration of pioglitazone. Distributions of subcutaneous fat and visceral fat were determined by assessing the region of a Hounsfield unit of −150 to −50 by a method modified from the computerized tomography (CT) scan at the level of the navel by Tokunaga et al. (Tokunaga, K. et al., Int. J. Obes. 7: 437-445, 1983). CT images at the baseline and after a three-month treatment were taken in accordance with the same protocols that had been previously reported by the present inventors (Kawai, T. et al., Metabolism, 48: 1102-1107, 1999). The V/S ratio was calculated by dividing the visceral fat area (VFA) by the subcutaneous fat area (SFA).

[5] = tested on: adiponectin (GBP28); assay: Serum GBP28 (adiponectin) by ELISA before and after three-month pioglitazone
Procedure: The patients who had been employed in Example 1 were also subjected to an assay of the blood concentration of GBP28 before and after the three-month administration of pioglitazone.
The anti-human GBP28 monoclonal antibody was prepared in the following manner. First, a solution of GBP28 (about 50 μg) isolated and purified from human serum was micellized with a complete adjuvant, and the resultant was administered to a mouse intraperitoneally. Two weeks later, the mouse was subjected to booster, the spleen was extirpated 3 days thereafter, and the B-cell was collected. The B-cell and the myeloma cell were allowed to fuse with each other to prepare hybridomas, and a hybridoma of interest was administered to a mouse intraperitoneally. Thereafter (20 days later), ascites was processed with DEAE-Sepharose Fast Flow, and the monoclonal antibody of interest was obtained.
GBP28 was assayed by ELISA in the following manner. A standard GBP28 sample, a 441-fold-diluted unknown sample, and a control sample (100 μl each) were added to a 96-well microtiter plate coated with the mouse anti-GBP28 monoclonal antibody. The plate was incubated for 60 minutes, the well was washed, and incubation was carried out for additional 30 minutes with the horseradish peroxidase-labeled mouse anti-GBP28 monoclonal antibody. The plate was washed again, and incubation was carried out for 30 minutes with a tetramethylbenzidine reagent. Subsequently, 100 μl of aqueous solution of 0.36N sulfuric acid was added to each well to terminate the reaction, and the absorbance at 450 nm was assayed. Intra- and interassay coefficients were 4.8% to 4.9% and 3.3% to 6.8%, respectively.

[6] = type II diabetes patients n=10, 30 mg/day orally, 3 months, mean ± S.D.
[7] = type II diabetes patients n=10, 30 mg/day orally, logarithmic values, mean ± S.D.
[8] = type II diabetes patients n=10, 30 mg/day orally, mean ± S.D.
[9] = type II diabetes patients, three-month administration, given without sign

CCc1ccc(CCOc2ccc(CC3SC(=O)NC3=O)cc2)nc1 (stereo not drawn) [pioglitazone]
Body Mass Index, after the three-month trace ([1]; 3 months): 27.0 ± 3.5 kg/m^2 | Body Mass Index, rate of change in 3 months [1]: 2.1 ± 2.2 | Body mass index at diastolic blood pressure, rate of change in 3 months [1]: −6.3 ± 6.9 | Body mass index at systolic blood pressure, rate of change in 3 months [1]: −7.0 ± 4.9 | Fasting blood glucose, after the three-month trace [2, 6]: 7.0 ± 1.0^ mmol/l | HDL cholesterol, after the three-month trace [2, 6]: 52.1 ± 7.3 mg/dL | HbA1c, after the three-month trace [2, 6]: 6.1 ± 0.6^ % | LDL cholesterol, after the three-month trace [2, 6]: 138 ± 24 mg/dL | Total cholesterol, after the three-month trace [2, 6]: 218 ± 35 mg/dL | Triglyceride (log), after the three-month trace [2, 6]: 127 ± 2 mg/dl | Uric acid, after the three-month trace [2, 6]: 5.6 ± 1.3^ mg/dl | Triglyceride (log), rate of change in 3 months [2, 7]: −1.0 ± 6.3 | Fasting blood glucose, rate of change in 3 months [2, 8]: −18.2 ± 9.3 | HDL cholesterol, rate of change in 3 months [2, 8]: 2.0 ± 11.2 | HbA1c, rate of change in 3 months [2, 8]: −9.0 ± 8.8 | LDL cholesterol, rate of change in 3 months [2, 8]: 12.3 ± 12.8 | Total cholesterol, rate of change in 3 months [2, 8]: 4.8 ± 10.9 | Uric acid, rate of change in 3 months [2, 8]: −5.0 ± 9.5 | Rate of change of HbA1C over three months [2, 9]: 9.0% | Rate of change of blood glucose over three months [2, 9]: 18.2% | HOMA-IR (log), after the three-month trace [3, 6]: 1.6 ± 1.3^ | Serum insulin (log), after the three-month trace [3, 6]: 30 ± 8 pmmol/l | HOMA-IR (log), rate of change in 3 months [3, 7]: −62.6 ± 22.6 | Serum insulin (log), rate of change in 3 months [3, 7]: −23.7 ± 13.5 | Rate of change of HOMA-IR over three months [3, 9]: 62.6% | Rate of change of serum insulin over three months [3, 9]: 23.7% | Subcutaneous Fat Area, after the three-month trace ([4]; 3 months, CT at navel level): 179 ± 81 cm^2 | Visceral Fat Area, after the three-month trace ([4]; 3 months, CT at navel level): 180 ± 46 cm^2 | V/S ratio, after the three-month trace ([4]; 3 months, VFA divided by SFA): 1.1 ± 0.3 | Subcutaneous Fat Area, rate of changes in 3 months [4]: 16.1 ± 18.7 | V/S ratio, rate of changes in 3 months [4]: −4.0 ± 11.2 | Visceral Fat Area, rate of changes in 3 months [4]: 11.3 ± 21.3 | Elevation in serum adiponectin level, times higher than the baselines on average ([5]; 10 type II diabetes patients, three-month administration): 3 times | GBP28 (log), after the three-month trace ([5]; type II diabetes patients n=10, 30 mg/day orally, 3 months, serum, mean ± S.D.): 14.4 ± 2.1 μg/l | GBP28 (log), rate of change in 3 months [5, 7]: 80.9 ± 58^ | Rate of change of concentration of GBP28 over three months ([5]; type II diabetes patients, three-month administration): 80.9%
